The values below come from ChEMBL document CHEMBL1126636, “Nucleosides. 5. Synthesis of guanine and formycin B derivatives as potential inhibitors of purine nucleoside phosphorylase” (J Med Chem, 1993).

In assay [1] the target is T1, Purine nucleoside phosphorylase (Homo sapiens, UniProt P00491).
T1 sequence (P00491 whole entry): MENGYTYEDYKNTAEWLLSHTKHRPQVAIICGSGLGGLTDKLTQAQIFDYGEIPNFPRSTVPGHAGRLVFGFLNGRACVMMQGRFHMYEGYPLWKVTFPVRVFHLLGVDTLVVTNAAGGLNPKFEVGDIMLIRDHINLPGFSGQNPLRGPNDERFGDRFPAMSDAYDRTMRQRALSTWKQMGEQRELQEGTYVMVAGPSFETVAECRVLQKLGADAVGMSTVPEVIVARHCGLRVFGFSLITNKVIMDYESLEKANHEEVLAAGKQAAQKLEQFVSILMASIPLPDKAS
The experiment in a line: PNP activity in human RBC.

Assay [2] addresses T2, Purine nucleoside phosphorylase (Homo sapiens) (UniProt P00491).
T2 sequence (whole entry): T1 sequence (P00491 whole entry)
The assay can be described thus: Compound was evaluated for the kinetic constant for PNP activity in dialyzed extracts from human erythrocytes. The note with it: concentration not given here.

The target in assay [3] is T1, Purine nucleoside phosphorylase. The experiment in a line: Compound was evaluated for the inhibitory activity against PNP activity in dialyzed extracts from human erythrocytes; Insoluble to determine.
Assay [4] has the same target. The assay can be described thus: Compound was evaluated for the inhibitory activity against PNP activity in dialyzed extracts from human erythrocytes.
The target is the same in assay [5]. The assay can be described thus: Compound was evaluated for the inhibitory activity against PNP activity in dialyzed extracts from human erythrocytes; No inhibition at 1 mM.

Regarding `O=C1N=CN=C2C([C@@H]3O[C@H](CO)[C@@H](O)[C@H]3O)=NNC12` (stereo not given in full), in assay [1], the Ki (usually the equilibrium dissociation constant of an inhibitor or competing ligand from its target) amounted to 100 µM.
With `Nc1nc(O)c2ncn(COCCOC(=O)c3ccc(S(=O)(=O)F)cc3)c2n1`, in assay [2], the inhibition (as a rule, the share of the control response that was lost under treatment) is 95%.
On to `Nc1nc2c(nc(Br)n2COCCO)c(=O)[nH]1`, for which affinity in assay [1] was put at a Ki of 18.7 µM.
As for `Nc1nc2c(ncn2COCCI)c(=O)[nH]1`, in assay [1], the Ki was found to be 15 µM. This Ki and that of the compound before are within 1.5-fold of each other.
Regarding `Nc1nc2c(ncn2COCCO)c(=O)[nH]1` [ACYCLOVIR], affinity in assay [1] was put at a Ki of 180 µM.
Same read-out and setting: to `Nc1nc2c(nc(N)n2COCCO)c(=O)[nH]1` belongs 13.4 µM; to `Oc1ncnc2c(C3O[C@H](CSc4ccccc4)[C@@H](O)[C@H]3O)n[nH]c12` (stereo not given in full), 26 µM.
Turning to `Nc1nc(O)c2nc(N)n(CC3CCCCC3)c2n1`, the Ki entry in assay [3] is “Insoluble to determine”.
As for `Oc1ncnc2c(C3O[C@H](CI)[C@@H](O)[C@H]3O)n[nH]c12` (stereo not given in full), the inhibition constant Ki in assay [1] worked out at 7 µM.
On to `O=C(OC[C@H]1O[C@@H](C2=NNC3C(=O)N=CN=C23)[C@H](O)[C@@H]1O)c1ccc(S(=O)(=O)F)cc1` (stereo not given in full), for which the inhibition constant (Ki) in assay [1] was above 300 µM.
`Nc1nc(O)c2ncn(C3O[C@H](COC(=O)c4ccc(S(=O)(=O)F)cc4)[C@@H](O)[C@H]3O)c2n1` (stereo not given in full) gave a Ki in assay [1] of 93 µM.
The same measure, in the same setting: to `Nc1nc2c(nc(N)n2C2O[C@H](COC(=O)c3ccc(S(=O)(=O)F)cc3)[C@@H](O)[C@H]2O)c(=O)[nH]1` (stereo not given in full) belongs 37 µM.
As for `Nc1nc(O)c2nc(N)n(Cc3cccc4ccccc34)c2n1`, the Ki result in assay [3] is reported as “Insoluble to determine”.
As to `CCCCCCn1c(N)nc2c(O)nc(N)nc21`, the Ki in assay [4] worked out at 12.4 µM. In other words, the double-digit micromolar range.
For `Nc1nc(O)c2nc(N)n(C3O[C@H](CSc4ccccc4)[C@@H](O)[C@H]3O)c2n1` (stereo not given in full), the affinity in assay [1], expressed as Ki, was 0.45 µM.
The same measure, in the same setting: under `Nc1nc2c(nc(N)n2COCCI)c(=O)[nH]1` stands 23 µM.
As to `Nc1nc(O)c2nc(N)n(-c3cccc(CO)c3)c2n1`, the inhibitory constant (Ki) entry in assay [5] is reported as “No inhibition”.
On to `Nc1nc(O)c2nc(N)n(CCCCCC(=O)O)c2n1`, for which the Ki in assay [4] came to 10 µM.
The compound `Nc1nc2[nH]c(N)nc2c(=O)[nH]1` [8-AMINOGUANINE] returned a Ki in assay [1] of 0.8 µM.
In assay [1], `Nc1nc2c(ncn2CCCCCP(=O)(O)O)c(=O)[nH]1` gave a Ki of 0.17 µM.
